From US9987211B2, “Sunless tanning compounds and compositions” (REGENTS OF THE UNIVERSITY OF MINNESOTA, priority 2013, dated 2018)

Tested on: guinea pig skin
Experiment: Pigment changes with topical application on guinea pig skin (melanin stimulation)
Assay type: in vivo
Method: Compounds 10, 117 and 123 in a solution of 75% PG/25% DMSO at 300 μM and 600 μM were provided in light tight containers and stored at 4 degrees C. Solutions were brought to room temp and vortexed prior to each use. Female Guinea pigs were shaved with electric clippers and the remaining stubble removed with Nair. The dorsal area of each guinea pig was divided into 2-3 sections. Treatment with compounds/vehicle began immediately after Nair application. 25 μL of each solution was applied to the assigned treatment site twice daily for 5 days. Hair removal, monitoring and photography continued once weekly for 30 days. Photos were taken with a Nikon D80 Digital SLR camera and Miravex Antera Melanin sensing camera.

[1] = 0.025 mL of 600 μM applied on guinea pig skin twice daily for five consecutive days, by day 15

Compound: Thymidine dinucleotide 5′-phosphate [reference compound]
- melanin stimulation relative to surrounding untreated skin [1]: marked melanin stimulation

Compound: Cc1cn(CC(Cn2cc(C)c(=O)[nH]c2=O)C(=O)O)c(=O)[nH]c1=O [Compound 117]
- melanin stimulation relative to surrounding untreated skin [1]: marked melanin stimulation

Compound: C[C@@]12C(=O)NC(=O)N3CCCN4C(=O)NC(=O)[C@]1(C)[C@H]4[C@H]32 [Compound 10]
- melanin stimulation relative to surrounding untreated skin (0.025 mL of 300 μM applied on guinea pig skin twice daily for five consecutive days, by day 8): marked melanin stimulation
